These are literature values, as cited in patent US10507186B2, “Methods and compositions particularly for treatment of attention deficit disorder” (Purdue Pharma L.P., priority 2014, dated 2019).

Where a name gives a salt, the structure may show the parent alone. Read-outs that look alike come from different tables or passages of the source.

Data set [1] has as its system ADHD symptoms in patients. Conditions: long-acting lisdexamfetamine dimesylate.

`COC(=O)C(c1ccccc1)C1CCCCN1` (racemic) [Methylphenidate, dl-threo-methyl-2-phenyl-2-(2-piperidyl)acetate]: the degradation amount result (as the pH increases to 8.9) is recorded as “up to 100%”. Besides, the stability entry (in acidic solutions) is reported as “relatively stable” and the stability entry (in basic solutions, hydrolysis of the methyl ester to the free acid) was “degraded extensively”.

`COC(=O)C(c1ccccc1)C1CCCCN1` (stereo not drawn) [Methylphenidate hydrochloride]: the solubility entry runs as follows: (in acetone) “slightly soluble”; (in alcohol) “soluble”; (in chloroform) “slightly soluble”; (in methanol) “freely soluble”; (in water) “freely soluble”.

lisdexamfetamine dimesylate: the “reported duration of action” value in data set [1] is “up to 14 hours”.
